Six compounds from patent US20250115634A1, “LIGAND, METHOD FOR PREPARING SAME, AND USE THEREOF” (priority 2022, published 2025) can be followed below.

The structures appear in SMILES notation.

The target in experiment [1] is T1, ASGPR receptor (Mus musculus, UniProt P24721+P34927).
T1 construct: C57 mouse primary liver cells were isolated; endogenous in cells; host or cells: C57 mouse primary liver cells
T1 sequence (P34927 1-284): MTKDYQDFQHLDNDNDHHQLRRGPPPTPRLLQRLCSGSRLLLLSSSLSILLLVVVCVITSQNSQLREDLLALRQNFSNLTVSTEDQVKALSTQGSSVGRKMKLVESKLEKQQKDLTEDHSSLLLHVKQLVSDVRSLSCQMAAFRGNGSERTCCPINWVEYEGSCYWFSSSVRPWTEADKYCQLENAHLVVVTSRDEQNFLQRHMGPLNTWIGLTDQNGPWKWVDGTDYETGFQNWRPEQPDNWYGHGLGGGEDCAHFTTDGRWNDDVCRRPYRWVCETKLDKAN
T1 sequence (P24721 1-301): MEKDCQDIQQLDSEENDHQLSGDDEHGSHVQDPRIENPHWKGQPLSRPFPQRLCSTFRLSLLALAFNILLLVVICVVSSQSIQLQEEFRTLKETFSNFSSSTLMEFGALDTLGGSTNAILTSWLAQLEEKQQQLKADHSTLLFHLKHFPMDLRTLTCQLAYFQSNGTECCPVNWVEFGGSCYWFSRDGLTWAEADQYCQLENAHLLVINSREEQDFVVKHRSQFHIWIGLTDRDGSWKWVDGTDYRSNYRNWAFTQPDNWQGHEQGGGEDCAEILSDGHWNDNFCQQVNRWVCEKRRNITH
The experiment is described as follows: Binding of Cy5-labelled ligands to ASGPR on primary mouse liver cells (Kd). Conditions: C57 mouse primary liver cells, incubated 37° C. in the dark for 30 min, trypsin to remove surface fluorescence. The procedure: (§1) The binding rate of the ligand of the present disclosure to the ASGPR receptor of liver cancer cells was tested, with the ligand with hepatocellular ASGPR-targeting property, loaded in Inclisiran, a small interfering nucleic acid drug marketed by Alnylam, as a positive control (PC).
The ligand-receptor dissociation constant (Kd, which is the drug concentration required for half of the maximum effect, i.e. 50% of the receptors are occupied) was used as a measure of ligand-receptor binding capacity; and the lower the Kd value, the higher the binding capacity.
C57 mouse primary liver cells were isolated, and the cells were in a good state, had viability of 92%, and were at a density of 2×10^5 cells/400 μL.
The test compounds were dissolved with PBS and then diluted with complete medium for primary liver cells to various concentration gradients.
The cells was added with 100 μL of the test compound solution prepared according to the set concentration gradients (the test compounds was first prepared with PBS into a stock solution, which was then diluted to the set concentration gradients with complete medium) and incubated at 37° C. in the dark for 30 min.
After incubation, the cells were washed once with 500 μL of PBS.
The cells were added with typsin to remove fluorescence on the cell surface.
The cells were washed again with 500 μL of PBS and detected on machine.

For experiment [2], the target named is T2, ASGPR receptor (Homo sapiens, UniProt P07306+P07307).
T2 construct: HepG2 cells grown to confluence of greater than 80%; endogenous in cells; host or cells: HepG2
T2 sequence (P07306 1-291): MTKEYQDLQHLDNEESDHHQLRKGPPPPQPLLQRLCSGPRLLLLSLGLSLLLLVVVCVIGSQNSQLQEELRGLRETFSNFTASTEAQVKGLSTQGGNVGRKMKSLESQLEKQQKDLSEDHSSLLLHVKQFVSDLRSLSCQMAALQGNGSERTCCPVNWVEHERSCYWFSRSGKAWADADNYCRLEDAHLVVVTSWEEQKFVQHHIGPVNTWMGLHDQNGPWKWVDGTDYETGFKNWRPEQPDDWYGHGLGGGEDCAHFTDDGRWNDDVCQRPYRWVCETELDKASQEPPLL
T2 sequence (P07307 1-311): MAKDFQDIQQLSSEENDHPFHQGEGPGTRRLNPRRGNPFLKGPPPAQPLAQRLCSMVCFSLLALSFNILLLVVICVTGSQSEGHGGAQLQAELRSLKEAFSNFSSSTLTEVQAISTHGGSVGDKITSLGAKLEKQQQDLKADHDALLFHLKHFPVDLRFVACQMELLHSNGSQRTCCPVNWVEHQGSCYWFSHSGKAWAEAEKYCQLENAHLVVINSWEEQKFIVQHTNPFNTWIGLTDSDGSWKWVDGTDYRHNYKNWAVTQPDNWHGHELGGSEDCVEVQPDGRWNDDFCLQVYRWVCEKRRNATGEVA
The experiment is described as follows: Binding of Cy5-labelled ligands to ASGPR on HepG2 cell line (Kd). Conditions: HepG2 cells, incubated at room temperature in the dark for 30 min. The procedure:
as §1
The ligand-receptor dissociation constant (Kd, which is the drug concentration required for half of the maximum effect, i.e. 50% of the receptors are occupied) was used as a measure of ligand-receptor binding capacity, and the lower the Kd value, the higher the binding capacity.
• 1. HepG2 cells grown to confluence of greater than 80% and in a good state were digested, centrifuged and counted. • 2. The test compounds were diluted with PBS to various concentration gradients. • 3. The cells were washed once with PBS, added with 100 μL of the prepared compounds, and incubated at room temperature in the dark for 30 min. • 4. After incubation, the cells were washed twice with 1 mL of PBS and detected on machine.

With `CC[N+]1=C(/C=C/C=C/C=C2/c3ccccc3N(CCCCCC(=O)NCCCC(=O)CCCCCCCCCCC(=O)N3C[C@H](OCC(=O)NCCOCCOCCOC4OC(CO)C(O)C(O)C4NC(C)=O)C[C@H]3C(=O)NC(COCCC(=O)NCCOCCOCCOC3OC(CO)C(O)C(O)C3NC(C)=O)COCCC(=O)NCCOCCOCCOC3OC(CO)C(O)C(O)C3NC(C)=O)C2(C)C)C(C)(C)c2ccccc21` (some centres unmarked) [TC12A-Cy5], binding on ASGPR receptor [1] was characterised by a dissociation constant (Kd) of 0.696 nM.

As to `CC[N+]1=C(/C=C/C=C/C=C2/c3ccccc3N(CCCCCC(=O)NCCNC(=O)CCNC(=O)[C@H](CNC(=O)C(C)(COCC(=O)NCCOCCOC3OC(CO)C(O)C(O)C3NC(C)=O)COCC(=O)NCCOCCOC3OC(CO)C(O)C(O)C3NC(C)=O)NC(=O)C(C)(COCC(=O)NCCOCCOC3OC(CO)C(O)C(O)C3NC(C)=O)COCC(=O)NCCOCCOC3OC(CO)C(O)C(O)C3NC(C)=O)C2(C)C)C(C)(C)c2ccccc21` (some centres unmarked) [TEC02A-Cy5], the dissociation constant Kd (usually the free concentration of one partner at which half of the binding sites on the other are occupied at equilibrium, for simple one-to-one binding) was found to be 20.7 nM at ASGPR receptor [2] and 0.198 nM on ASGPR receptor [1].

As for `CC[N+]1=C(/C=C/C=C/C=C2/c3ccccc3N(CCCCCC(=O)NCCNC(=O)CCCCCCCCCCCNC(=O)[C@H](CNC(=O)C(C)(COCC(=O)NCCOCCOC3OC(CO)C(O)C(O)C3NC(C)=O)COCC(=O)NCCOCCOC3OC(CO)C(O)C(O)C3NC(C)=O)NC(=O)C(C)(CCCC(=O)NCCOCCOC3OC(CO)C(O)C(O)C3NC(C)=O)COCC(=O)NCCOCCOC3OC(CO)C(O)C(O)C3NC(C)=O)C2(C)C)C(C)(C)c2ccccc21` (some centres unmarked) [TEC06A-Cy5], the Kd on ASGPR receptor [1] was determined as 0.496 nM.

The compound `CC[N+]1=C(/C=C/C=C/C=C2/c3ccccc3N(CCCCCC(=O)NCCNC(=O)CCCCCCCCCCC(=O)N3C[C@H](OCC(=O)NCCOCCOC4OC(CO)C(O)C(O)C4NC(C)=O)C[C@H]3C(=O)NC(C)(COCCC(=O)NCCOCCOC3OC(CO)C(O)C(O)C3NC(C)=O)COCCC(=O)NCCOCCOC3OC(CO)C(O)C(O)C3NC(C)=O)C2(C)C)C(C)(C)c2ccccc21` (some centres unmarked) [TC10A-Cy5] had a Kd on ASGPR receptor [1] of 0.867 nM.

`CC[N+]1=C(/C=C/C=C/C=C2/c3ccccc3N(CCCCCC(=O)NCCNC(=O)CCC(=O)Nc3cc(C(=O)NCCOCCOC4OC(CO)C(O)C(O)C4NC(C)=O)cc(C(=O)Nc4cc(C(=O)NCCOCCOC5OC(CO)C(O)C(O)C5NC(C)=O)cc(C(=O)NCCOCCOC5OC(CO)C(O)C(O)C5NC(C)=O)c4)c3)C2(C)C)C(C)(C)c2ccccc21` (centres unmarked) [TC17A-Cy5] gave a Kd on ASGPR receptor [1] of 1.26 nM.

In the case of `CC[N+]1=C(/C=C/C=C/C=C2/c3ccccc3N(CCCCCC(=O)NCCNC(=O)CCCCCCCCCCCNC(COCCC(=O)NCCCNC(=O)CCCCOC3OC(CO)C(O)C(O)C3NC(C)=O)(COCCC(=O)NCCCNC(=O)CCCCOC3OC(CO)C(O)C(O)C3NC(C)=O)COCCC(=O)NCCCNC(=O)CCCCOC3OC(CO)C(O)C(O)C3NC(C)=O)C2(C)C)C(C)(C)c2ccccc21` (centres unmarked) [PC-Cy5, reference compound], the results for the dissociation constant Kd on ASGPR receptor [2] and on ASGPR receptor [1] were 40.2 nM and 0.408 nM, respectively.
